Experimental data from patent US8409550B2, “Method for treating skin with retinoids and retinoid boosters” (Unilever Home & Personal Care, USA, Division of Conopco, …, priority 2000, dated 2013).
“And” between values parts separate entries of the source, which are not always exact repeats. Equal values may be shown once. Read-outs that look alike come from different tables or passages of the source. One block for each molecule: values may come before it.

Legend:
ARAT = experiment: Assay for ARAT activity, bovine RPE microsomes (to identify B1); format: biochemical; conditions: compound 100 jm
[1] = biological target: transglutaminase (TGase I); experiment: Transglutaminase (Tgase) ELISA assay in cultured keratinocytes with retinol and boosters; format: cell-based, human; conditions: for TG as % C Compd 1 / TG as % C, Compd 3 / TG as % C Compd 2: concentration one log below IC20; for IC20: IC20 (80% of control); for TG as % C, Compd 3: Compound 3 alone
LRAT = biological target: T1, LRAT (Bos taurus, UniProt Q9BGL2); experiment: Assay for LRAT activity, bovine RPE microsomes (to identify B1); format: biochemical
T1 construct: followed by approximately 15 μg of RPE microsomal protein; tissue W. L. Lawson Co., Lincoln, Nebr., USA (eyecups); host or cells: bovine retinal pigment epithelium microsomes
T1 sequence (Q9BGL2 1-230): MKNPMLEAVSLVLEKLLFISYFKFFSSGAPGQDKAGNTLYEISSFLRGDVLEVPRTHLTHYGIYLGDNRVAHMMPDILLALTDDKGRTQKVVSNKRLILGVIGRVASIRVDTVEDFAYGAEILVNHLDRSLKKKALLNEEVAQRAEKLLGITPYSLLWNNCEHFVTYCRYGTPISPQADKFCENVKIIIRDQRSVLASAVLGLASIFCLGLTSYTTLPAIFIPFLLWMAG

[2] = Compound 1 alone, in the presence of 10^-7M retinol
[3] = compound tested individually in the presence of 10^-7 M retinol
[4] = Tgase inhibition, compound tested individually in the presence of 10^-7 M retinol, read-out: IC50
[5] = in the presence of 10^-7M retinol
[6] = Compound 2 alone, in the presence of 10^-7M retinol

IC50 ([1]; B1 table, booster concentration which with 10^−7 M retinol inhibits TGase by 50%, same values in the 19th table (Molar), read-out: Overall TG (IC 50)): 28 µM
TG as % C Compd 1 [1, 2]: 62 % C
IC20 [1, 3]: 10.8 µM
IC50 [1, 4]: 28 µM
TG as % C Compd 1 ([1]; compound 1 alone, with retinol, listed as Oleoyl beatine): 96 % C
TG as % C Compd 1 ([1]; compound 1 alone, with retinol, listed as Oleoyl betaine): 99.5 % C
Molecule: Oleyl Betaine
% Inhibition ARAT (100 jm) (ARAT): 47%

IC50 [1, 4]: 65 µM
Molecule: CCCCCCCC/C=C/CCCCCCCC(=O)O [Elaidic Acid]
TG as % C Compd 1 [1, 2]: 93 % C
TG as % C, Compd 3 [1, 5]: 93 % C
IC20 [1, 3]: 58.8 µM
TG as % C Compd 2 ([1]; compound 2 alone, with retinol): 144 % C

Molecule: CC(C)=CCCC(C)CCO (stereo not shown) [Citronellol]
% Inhibition ARAT (100 jm) (ARAT): 30%

inhibition at 100 µM (LRAT; compound 100 jm): 0%
Molecule: C=CC(C)(O)CCC=C(C)C (stereo not shown) [Linalool]

% Inhibition LRAT (10 jm) (LRAT; compound 10 jm): 52%
% Inhibition LRAT (100 jm) (LRAT; compound 100 jm): 92%
Molecule: C/C=C/C(=O)C1=C(C)CCCC1(C)C [Beta-Damascone]

Molecule: CC(C)(O)CCCC1=CCC(C=O)CC1 (stereo not shown) [Lyral]
% Inhibition ARAT (100 jm) (ARAT): 76%
TG as % C Compd 1 [1, 2]: 97 % C
IC20 [1, 3]: 40 µM
TG as % C Compd 1 ([1]; compound 1 alone, with retinol): 120 % C

% Inhibition LRAT (100 jm) (LRAT; compound 100 jm): 33%
Molecule: CCCC(O)CCC1C(C)CCCC1(C)C (stereo not shown) [Timberol]

TG as % C, Compd 3 [1, 5]: 88 % C
Molecule: CC(=O)/C=C/C1C(C)=CCCC1(C)C (stereo not shown) [a-Ionone]

Molecule: CCCCCC(N)=O [Hexanoamide]
% Inhibition ARAT (100 jm) (ARAT): 20%

Molecule: CC12CCC(C1)C(C)(C)C2O (stereo not shown) [Fenchyl Alcohol]
% Inhibition ARAT (100 jm) (ARAT): 12%

Molecule: O=C1C[C@@H](c2ccc(O)cc2)Oc2cc(O)cc(O)c21 [Naringenin]
% Inhibition ARAT (100 jm) (ARAT): 33%
TG as % C, Compd 3 [1, 5]: 94 % C
TG as % C Compd 1 ([1]; compound 1 alone, with retinol): 95 % C

Molecule: O=c1ccc2ccccc2o1 [Coumarin]
TG as % C, Compd 3 [1, 5]: 80 % C
TG as % C Compd 2 ([1]; compound 2 alone, with retinol): 96 % C

Molecule: CCCCCCCCCCCC1=NCCN1CCO [Lauryl Hydroxyethylimidazoline]
IC50 ([1]; B5 table, with 10^−7 M retinol, read-out: Overall TG (IC 50)): 0.467 µM
TG as % C, Compd 3 [1, 5]: 52 % C
IC20 [1, 3]: 0.269 µM
IC50 [1, 4]: 0.467 µM
TG as % C Compd 2 ([1]; compound 2 alone, with retinol): 73 % C
TG as % C Compd 2 ([1]; compound 2 alone, with retinol, listed as Lauryl hydorxyimidazoline): 106 % C
TG as % C Compd 2 ([1]; compound 2 alone, with retinol, listed as Lauryl hydroxyethylimiazoline): 98 % C

TG as % C, Compd 3 [1, 5]: 89 % C
Molecule: C/C=C\C(=O)C1C(C)=CCCC1(C)C (stereo not shown) [a-Damascone]

% Inhibition LRAT (100 jm) (LRAT; compound 100 jm): 37%
Molecule: CC(=O)/C=C/C=C(\C)CCC=C(C)C [Pseudoionone]

IC50 ([1]; Homo sapiens, Keratinocyte, B4 table, with 10^−7 M retinol, read-out: Overall TG (IC 50)): 29.1 µM
Molecule: CCCCCCC(O)CCCCCCCCCCC(=O)O (stereo not shown) [12-Hydroxystearic Acid]
TG as % C, Compd 3 [1, 5]: 95 % C
IC20 [1, 3]: 14.5 µM

Molecule: Nn1nnc2ccccc21
TG as % C Compd 2 [1, 6]: 105 % C
TG as % C, Compd 3 [1, 5]: 105 % C
TG as % C Compd 2 ([1]; compound 2 alone, with retinol): 105 % C and 126 % C
TG as % C Compd 2 ([1]; compound 2 alone, with retinol, listed as Aminobenzotriazole): 98 % C

Molecule: CC1=C(/C=C/C(C)=C/C=C/C(C)=C/CO)C(C)(C)CCC1 [retinol, All-trans-retinol, reference compound]
inhibition of transglutaminase production (maximal) ([1]; 1 μM retinoid, day 2, keratinocytes 4000 cells/well): 55%

Molecule: CCN(CC)CC(=O)Nc1c(C)cccc1C [Lidocaine, reference compound]
% Inhibition ARAT (100 jm) (ARAT): 12%

TG as % C Compd 2 [1, 6]: 90 % C
TG as % C, Compd 3 [1, 5]: 90 % C
Molecule: O=C1CCc2ccccc2N1

Molecule: CCCCCCCCCCCCCCCCC(O)C(=O)O (stereo not shown) [2-hydroxysteric acid, 2-Hydroxystearic acid]
TG as % C Compd 2 [1, 6]: 83 % C
TG as % C Compd 1 ([1]; compound 1 alone, with retinol): 92 % C

TG as % C, Compd 3 [1, 5]: 89 % C
Molecule: […]-Damascone

Molecule: Dimethyl imidazolinone
TG as % C Compd 2 [1, 6]: 87 % C
TG as % C, Compd 3 [1, 5]: 87 % C

Molecule: CC(=O)c1cc2c(cc1C)C(C)(C)[C@H](C)[C@H]2C(C)C [Traseolide]
% Inhibition ARAT (100 jm) (ARAT): 41%

TG as % C Compd 2 ([1]; compound 2 alone, with retinol): 112 % C
Molecule: Dimethyl imidazoline

Molecule: CC(=O)c1cc2c(cc1C)C(C)(C)C(C)CC2(C)C (stereo not shown) [Tonalid]
% Inhibition ARAT (100 jm) (ARAT): 50%

Molecule: CCCCCCCCCCCC(=O)N(C)CC(=O)O [Lauroyl Sarcosine]
% Inhibition ARAT (100 jm) (ARAT): 20%
